Data reported in publication PMC11239671, “GolpHCat (TMEM87A), a unique voltage-dependent cation channel in Golgi apparatus, contributes to Golgi-pH maintenance and hippocampus-dependent memory” (Nature Communications, 2024).
Residue numbers refer to the chain shown, from its start.

Legend:
[1] = biological target: T1, TMEM87A (GolpHCat) (Homo sapiens, UniProt Q8NBN3); assay: cryo-EM structure at ~[…] Å with […] sodium gluconate; IC50 from whole-cell patch clamp in CHO-K1 cells; type: cell-based; parameters: full-length hTMEM87A, M1-E555 (isoform 1, NP_056312.2), EGFP-Twin-strep tag
T1 sequence (Q8NBN3 1-555): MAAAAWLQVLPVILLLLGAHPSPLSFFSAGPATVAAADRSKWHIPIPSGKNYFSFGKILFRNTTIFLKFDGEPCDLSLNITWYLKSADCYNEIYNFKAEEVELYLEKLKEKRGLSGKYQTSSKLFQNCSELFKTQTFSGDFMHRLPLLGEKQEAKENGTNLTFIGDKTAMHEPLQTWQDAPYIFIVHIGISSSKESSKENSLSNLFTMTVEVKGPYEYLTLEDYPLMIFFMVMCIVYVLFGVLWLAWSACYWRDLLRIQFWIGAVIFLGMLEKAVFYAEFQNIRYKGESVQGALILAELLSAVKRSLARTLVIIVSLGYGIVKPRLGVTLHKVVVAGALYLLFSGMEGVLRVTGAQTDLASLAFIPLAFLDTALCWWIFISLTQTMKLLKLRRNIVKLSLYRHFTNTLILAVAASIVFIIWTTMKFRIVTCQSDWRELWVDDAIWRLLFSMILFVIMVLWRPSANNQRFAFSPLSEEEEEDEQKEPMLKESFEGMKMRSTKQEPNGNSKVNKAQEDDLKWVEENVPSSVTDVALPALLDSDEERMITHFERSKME

[2] = biological target: T1, TMEM87A (GolpHCat); assay: cryo-EM structure at […] Å; co-purified lipid, assigned from density shape and Golgi lipid composition; type: binding; parameters: full-length hTMEM87A, M1-E555; modelled D38-P473
[3] = biological target: T2, TMEM87A (GolpHCat) (Homo sapiens, UniProt Q8NBN3, A308M); assay: cryo-EM structure at ~[…] Å; co-purified lipid density; type: binding
T2 construct: full-length hTMEM87A, M1-E555
T2 sequence (Q8NBN3 1-555 A308M): T1 sequence (Q8NBN3 1-555) with A308M

Row | Compound | IC50 [1] [nM] | cryo-EM structure at 3.1 Å; co-purified lipid, assigned from density shape and G [2] | cryo-EM structure at ~3.1 Å; co-purified lipid density [3]
1 | O=C(O)[C@H](O)[C@@H](O)[C@H](O)[C@H](O)CO [gluconate] | 100 |  | 
2 | CCCCCCCC/C=C\CCCCCCCC(=O)O[C@H](COC(=O)CCCCCCCCCCCCCCC)COP(=O)(O)OCCN [PE, 1-palmitoyl-2-oleoyl-sn-glycerol-3-phosphoethanolamine] |  | PE was co-purified with hTMEM87A, suggesting that PE tightly and stably binds to TMEM87A | the PE density in hTMEM87A A308M was displaced to a position similar to that of the S6 state
